# Source: PubChem BioAssay AID2060604 (Molecular Pharmacology Branch, DTP, NCI, 2025)
# System: 379773-124-R-J2-PDC complex spheroids, viability % test/control
# Assay: Anticancer human tumor 379773-124-R-J2-PDC patient-derived endometrial carcinoma cell line growth inhibition [CLK]
# Settings: for IC50: curve of first compound; for viability, T/C: stronger effect = lower value
# Procedure, shortened: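 Patient-derived tumor cells grown as complex spheroids with HUVEC endothelial cells and mesenchymal stem cells, treated with drug combinations. Concentrations descend in half-log steps from near clinical Cmax, or from 10 microM if Cmax unknown.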
# [1] = second compound 0.0316 µM, first compound 0.0316 µM
# [2] = second compound 0.0316 µM, first compound 0.1 µM
# [3] = second compound 0.0316 µM, first compound 0.316 µM
# [4] = second compound 0.0316 µM, first compound 1 µM
# [5] = second compound 0.1 µM, first compound 0.0316 µM
# [6] = second compound 0.1 µM, first compound 0.1 µM
# [7] = second compound 0.1 µM, first compound 0.316 µM
# [8] = second compound 0.1 µM, first compound 1 µM
# [9] = second compound 0.316 µM, first compound 0.0316 µM
# [10] = second compound 0.316 µM, first compound 0.1 µM
# [11] = second compound 0.316 µM, first compound 0.316 µM
# [12] = second compound 0.316 µM, first compound 1 µM
# [13] = second compound 1 µM, first compound 0.0316 µM
# [14] = second compound 1 µM, first compound 0.1 µM
# [15] = second compound 1 µM, first compound 0.316 µM
# [16] = second compound 1 µM, first compound 1 µM
# [17] = second compound 3.16 µM, first compound 0.0316 µM
# [18] = second compound 3.16 µM, first compound 0.1 µM
# [19] = second compound 3.16 µM, first compound 0.316 µM
# [20] = second compound 3.16 µM, first compound 1 µM
# [21] = second compound 10 µM, first compound 0.0316 µM
# [22] = second compound 10 µM, first compound 0.1 µM
# [23] = second compound 10 µM, first compound 0.316 µM
# [24] = second compound 10 µM, first compound 1 µM
# 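Note: compound exposure lasted seven days before the viability readout.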
# 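Throughout, for viability, T/C: 100% = DMSO vehicle control wells.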
smiles,measurement,setting,value
CC(=O)O[C@H]1C(=O)[C@@]2(C)[C@H]([C@H](OC(=O)c3ccccc3)[C@]3(O)C[C@H](OC(=O)[C@H](O)[C@@H](NC(=O)c4ccccc4)c4ccccc4)C(C)=C1C3(C)C)[C@]1(OC(C)=O)CO[C@@H]1C[C@@H]2O + CN1CCN(c2cc(C(=O)Nc3cc4cc(-c5cnn(C)c5)ccc4cn3)ccn2)CC1,IC50,second compound 0.0316 µM,< 0.0316 µM
same,IC50,second compound 0.1 µM,< 0.0316 µM
same,IC50,second compound 0.316 µM,< 0.0316 µM
same,IC50,second compound 1 µM,< 0.0316 µM
same,IC50,second compound 3.16 µM,< 0.0316 µM
same,IC50,second compound 10 µM,< 0.0316 µM
same,"viability, T/C",[1],7.03%
same,"viability, T/C",[2],7.96%
same,"viability, T/C",[3],7.37%
same,"viability, T/C",[4],6.76%
same,"viability, T/C","second compound 0.0316 µM, first compound 3.16 µM",6.08%
same,"viability, T/C","second compound 0.0316 µM, first compound 10 µM",6.39%
same,"viability, T/C",[5],5.82%
same,"viability, T/C",[6],7.72%
same,"viability, T/C",[7],7.07%
same,"viability, T/C",[8],6.35%
same,"viability, T/C","second compound 0.1 µM, first compound 3.16 µM",6.66%
same,"viability, T/C","second compound 0.1 µM, first compound 10 µM",8.15%
same,"viability, T/C",[9],5.25%
same,"viability, T/C",[10],5.87%
same,"viability, T/C",[11],5.15%
same,"viability, T/C",[12],5.39%
same,"viability, T/C","second compound 0.316 µM, first compound 3.16 µM",7.05%
same,"viability, T/C","second compound 0.316 µM, first compound 10 µM",7.94%
same,"viability, T/C",[13],0.07%
same,"viability, T/C",[14],0.08%
same,"viability, T/C",[15],0.18%
same,"viability, T/C",[16],1.42%
same,"viability, T/C","second compound 1 µM, first compound 3.16 µM",0.21%
same,"viability, T/C","second compound 1 µM, first compound 10 µM",0.05%
same,"viability, T/C",[17],0.21%
same,"viability, T/C",[18],0.13%
same,"viability, T/C",[19],2.68%
same,"viability, T/C",[20],0.06%
same,"viability, T/C","second compound 3.16 µM, first compound 3.16 µM",0.46%
same,"viability, T/C","second compound 3.16 µM, first compound 10 µM",0.1%
same,"viability, T/C",[21],0.05%
same,"viability, T/C",[22],1.24%
same,"viability, T/C",[23],0.14%
same,"viability, T/C",[24],0.91%
same,"viability, T/C","second compound 10 µM, first compound 3.16 µM",0.48%
same,"viability, T/C","second compound 10 µM, first compound 10 µM",0.46%
CCc1c2c(nc3ccc(O)cc13)-c1cc3c(c(=O)n1C2)COC(=O)[C@]3(O)CC + CN1CCN(c2cc(C(=O)Nc3cc4cc(-c5cnn(C)c5)ccc4cn3)ccn2)CC1,IC50,second compound 0.0316 µM,< 0.00316 µM
same,IC50,second compound 0.1 µM,< 0.00316 µM
same,IC50,second compound 0.316 µM,< 0.00316 µM
same,IC50,second compound 1 µM,< 0.00316 µM
same,IC50,second compound 3.16 µM,< 0.00316 µM
same,IC50,second compound 10 µM,< 0.00316 µM
same,"viability, T/C","second compound 0.0316 µM, first compound 0.00316 µM",14.1%
same,"viability, T/C","second compound 0.0316 µM, first compound 0.01 µM",8.12%
same,"viability, T/C",[1],3.67%
same,"viability, T/C",[2],2.7%
same,"viability, T/C",[3],0.99%
same,"viability, T/C",[4],0.98%
same,"viability, T/C","second compound 0.1 µM, first compound 0.00316 µM",10.7%
same,"viability, T/C","second compound 0.1 µM, first compound 0.01 µM",7.87%
same,"viability, T/C",[5],5.68%
same,"viability, T/C",[6],1.93%
same,"viability, T/C",[7],1%
same,"viability, T/C",[8],0.47%
same,"viability, T/C","second compound 0.316 µM, first compound 0.00316 µM",10.6%
same,"viability, T/C","second compound 0.316 µM, first compound 0.01 µM",9.07%
same,"viability, T/C",[9],3.15%
same,"viability, T/C",[10],1.65%
same,"viability, T/C",[11],0.34%
same,"viability, T/C",[12],0.08%
same,"viability, T/C","second compound 1 µM, first compound 0.00316 µM",0.11%
same,"viability, T/C","second compound 1 µM, first compound 0.01 µM",0.18%
same,"viability, T/C",[13],0.1%
same,"viability, T/C",[14],0.34%
same,"viability, T/C",[15],0.05%
same,"viability, T/C",[16],0.05%
same,"viability, T/C","second compound 3.16 µM, first compound 0.00316 µM",0.07%
same,"viability, T/C","second compound 3.16 µM, first compound 0.01 µM",0.08%
same,"viability, T/C",[17],0.13%
same,"viability, T/C",[18],0.73%
same,"viability, T/C",[19],0.09%
same,"viability, T/C",[20],0.08%
same,"viability, T/C","second compound 10 µM, first compound 0.00316 µM",0.45%
same,"viability, T/C","second compound 10 µM, first compound 0.01 µM",0.11%
same,"viability, T/C",[21],0.2%
same,"viability, T/C",[22],1.89%
same,"viability, T/C",[23],0.75%
same,"viability, T/C",[24],0.18%
